Results from patent US9615576B2, “Pesticidal compositions and processes related thereto” (Dow AgroSciences LLC, priority 2011, dated 2017).

What was measured:
[1] = tested on: Corn Earworm (CEW) (Helicoverpa zea); test: Bioassays on Corn Earworm (CEW), 128-well diet tray assay; format: in vivo; conditions: 168 h, 50 μg/cm^2 test compound on artificial diet, second instar larvae, 25° C., five to seven days, average of eight wells, read-out: CEW Rating (% mortality)
Protocol: (§1) Certain molecules disclosed in this document were tested against BAW and CEW using procedures described in the following examples. In the reporting of the results, the “BAW & CEW Rating Table” was used (See Table Section).
Bioassays on CEW (Helicoverpa zea)
Bioassays on CEW were conducted using a 128-well diet tray assay. one to five second instar CEW larvae were placed in each well (3 mL) of the diet tray that had been previously filled with 1 mL of artificial diet to which 50 μg/cm^2 of the test compound (dissolved in 50 μL of 90:10 acetone-water mixture) had been applied (to each of eight wells) and then allowed to dry. Trays were covered with a clear self-adhesive cover, and held at 25° C., 14:10 light-dark for five to seven days. Percent mortality was recorded for the larvae in each well; activity in the eight wells was then averaged. The results are indicated in the table entitled “Table 3: Assay Results” (See Table Section).

[2] = tested on: Beet Armyworm (BAW) (Spodoptera exigua); test: Bioassays on Beet Armyworm (BAW), 128-well diet tray assay; format: in vivo; conditions: 168 h, 50 μg/cm^2 test compound on artificial diet, second instar larvae, 25° C., five to seven days, average of eight wells, read-out: BAW Rating (% mortality)
Protocol: as §1
Bioassays on BAW (Spodoptera exigua)
Bioassays on BAW were conducted using a 128-well diet tray assay. one to five second instar BAW larvae were placed in each well (3 mL) of the diet tray that had been previously filled with 1 mL of artificial diet to which 50 μg/cm^2 of the test compound (dissolved in 50 μL of 90:10 acetone-water mixture) had been applied (to each of eight wells) and then allowed to dry. Trays were covered with a clear self-adhesive cover, and held at 25° C., 14:10 light-dark for five to seven days. Percent mortality was recorded for the larvae in each well; activity in the eight wells was then averaged. The results are indicated in the table entitled “Table 3: Assay Results” (See Table Section).

Row | SMILES | mortality at 50 µg/cm2 [1] [%] | mortality at 50 µg/cm2 [2] [%]
1 | FC(F)(F)C(/C=C/c1ccc(CNc2ccccn2)c(Cl)c1)c1cc(Cl)c(Cl)c(Cl)c1 (stereo not shown) [CC43, (E)-N-(2-chloro-4-(4,4,4-trifluoro-3-(3,4,5-trichlorophenyl)but-1-en-1-yl)benzyl)pyridin-2-amine] | 0 to 50 | 50 to 100
2 | Cc1cc(/C=C/C(c2cc(Cl)cc(Cl)c2)C(F)(F)F)ccc1C(=O)NCC(=O)NC1CSC1 (stereo not shown) [AC41] | 0 | 50 to 100
3 | Cc1cc(/C=C/C(c2cc(Cl)c(Cl)c(Cl)c2)C(F)(F)F)ccc1-n1cncn1 (stereo not shown) [DC63] | 50 to 100 | 50 to 100
4 | CCNC(=O)NCc1ccc(/C=C/C(c2cc(Cl)cc(Cl)c2)C(F)(F)F)cc1Cl (stereo not shown) [CC31, (E)-1-(2-chloro-4-(3-(3,5-dichlorophenyl)-4,4,4-trifluorobut-1-en-1-yl)benzyl)-3-ethylurea] | 0 | 0 to 50
5 | O=C(Cn1ncc2cc(/C=C/C(c3cc(Cl)c(F)c(Cl)c3)C(F)(F)F)ccc2c1=O)NCC(F)(F)F (stereo not shown) [BC14, (E)-2-(6-(3-(3,5-dichloro-4-fluorophenyl)-4,4,4-trifluorobut-1-en-1-yl)-1-oxophthalazin-2(1H)-yl)-N-(2,2,2-trifluoroethyl)acetamide] | 0 | 50 to 100
6 | O=C(NC1CCCc2cc(/C=C/C(c3cc(Cl)c(Cl)c(Cl)c3)C(F)(F)F)ccc21)C1CC1 (stereo not shown) [BC7] | 50 to 100 | 50 to 100
7 | CCc1cc(/C=C/C(c2cc(Cl)c(F)c(Cl)c2)C(F)(F)F)ccc1C(=O)NCc1cccnc1Cl (stereo not shown) [AC76] | 50 to 100 | 50 to 100
8 | Cc1cc(/C=C/C(c2cc(Cl)cc(Cl)c2)C(F)(F)F)ccc1C(=O)NCc1cncnc1 (stereo not shown) [AC39, 4-((E)-3-(3,5-dichlorophenyl)-4,4,4-trifluorobut-1-enyl)-2-methyl-N-((pyrimidin-5-yl)methyl)benzamide] | 50 to 100 | 50 to 100
9 | O=C(CNC(=O)c1ccc(/C=C/C(c2cc(Cl)c(Cl)c(Cl)c2)C(F)(F)F)cc1Cl)NCC(F)(F)F (stereo not shown) [AC64, (E)-2-chloro-N-(2-oxo-2-((2,2,2-trifluoroethyl)amino)ethyl)-4-(4,4,4-trifluoro-3-(3,4,5-trichlorophenyl)but-1-en-1-yl)benzamide] | 50 to 100 | 50 to 100
10 | Nc1cc(/C=C/C(c2cc(Cl)cc(Cl)c2)C(F)(F)F)ccc1-n1cncn1 (stereo not shown) [DC55] | 0 | 0
11 | FC(F)(F)C(/C=C/c1ccc(CNC(=S)C2CC2)c(Cl)c1)c1cc(Cl)c(Cl)c(Cl)c1 (stereo not shown) [CC20] | 50 to 100 | 50 to 100
12 | Cc1cc(/C=C/C(c2cc(Cl)cc(Cl)c2)C(F)(F)F)ccc1C(=O)NCc1ccccc1F (stereo not shown) [AC9] | 50 to 100 | 50 to 100
13 | FC(F)(F)C(/C=C/c1ccc(-n2cncn2)c(Cl)c1)c1cc(Cl)cc(Cl)c1 (stereo not shown) [DC50] | 50 to 100 | 50 to 100
14 | N#Cc1cc(/C=C/C(c2cc(Cl)cc(C(F)(F)F)c2)C(F)(F)F)ccc1-n1cncn1 (stereo not shown) [DC33] | 50 to 100 | 50 to 100
15 | CC(=O)N1CCC(NC(=O)c2ccc(/C=C/C(c3cc(Cl)c(Cl)c(Cl)c3)C(F)(F)F)cc2Br)CC1 (stereo not shown) [AC103, (E)-N-(1-acetylpiperidin-4-yl)-2-bromo-4-(4,4,4-trifluoro-3-(3,4,5-trichlorophenyl)but-1-en-1-yl)benzamide] | 50 to 100 | 50 to 100
16 | CNc1cc(/C=C/C(c2cc(Cl)cc(Cl)c2)C(F)(F)F)ccc1-n1cncn1 (stereo not shown) [DC57, (E)-5-(3-(3,5-dichlorophenyl)-4,4,4-trifluorobut-1-en-1-yl)-N-methyl-2-(1H-1,2,4-triazol-1-yl)aniline] | 50 to 100 | 50 to 100
17 | O=C(Cc1ccc(Cl)nc1)NC1CCc2cc(/C=C/C(c3cc(Cl)c(F)c(Cl)c3)C(F)(F)F)ccc21 (stereo not shown) [BC9] | 50 to 100 | 50 to 100
18 | O=C(NCc1ccc(/C=C/C(c2cc(Cl)c(Cl)c(Cl)c2)C(F)(F)F)cc1C(F)(F)F)c1cccnc1 (stereo not shown) [CC23] | 50 to 100 | 50 to 100
19 | O=C(NCc1ccc(Cl)nc1)c1ccc(/C=C/C(c2cc(Cl)c(Cl)c(Cl)c2)C(F)(F)F)cc1C(F)(F)F (stereo not shown) [AC36] | 50 to 100 | 50 to 100

Row | SMILES | mortality at 50 µg/cm2 [1] [%] | mortality at 50 µg/cm2 [2] [%]
20 | FC(F)(F)C(/C=C/c1ccc(-n2cncn2)cc1)c1ccccc1 (stereo not shown) [DC3] | 0 | 0 to 50
21 | O=C(CC(F)(F)F)NCc1ncc(/C=C/C(c2cc(Cl)c(Cl)c(Cl)c2)C(F)(F)F)cc1Cl (stereo not shown) [CC44, (E)-N-((3-chloro-5-(4,4,4-trifluoro-3-(3,4,5-trichlorophenyl)-but-1-en-1-yl)pyridin-2-yl)methyl)-3,3,3-trifluoropropanamide] | 50 to 100 | 50 to 100
22 | O=C(O)c1cc(/C=C/C(c2cc(Cl)cc(Cl)c2)C(F)(F)F)ccc1-n1cncn1 (stereo not shown) [DC61, (E)-5-(3-(3,5-dichlorophenyl)-4,4,4-trifluorobut-1-en-1-yl)-2-(1H-1,2,4-triazol-1-yl)benzoic acid] | 0 | 0
23 | O=C(CC(F)(F)F)NCc1ccc(/C=C/C(c2cc(Cl)c(F)c(Cl)c2)C(F)(F)F)cc1 (stereo not shown) [CC16] | 50 to 100 | 50 to 100
24 | Fc1c(Cl)cc(C(/C=C/c2ccc3c(c2)CCC3NCCC(F)(F)F)C(F)(F)F)cc1Cl (stereo not shown) [BC10, (E)-5-(3-(3,5-dichloro-4-fluorophenyl)-4,4,4-trifluorobut-1-en-1-yl)-N-(3,3,3-trifluoropropyl)-2,3-dihydro-1H-inden-1-amine] | 50 to 100 | 50 to 100
25 | Cc1cc(/C=C/C(c2cc(Cl)c(F)c(Cl)c2)C(F)(F)F)ccc1C(=O)NCc1ccnc(Cl)c1 (stereo not shown) [AC54] | 50 to 100 | 50 to 100
26 | O=C(NCc1ccc(/C=C/C(c2cc(Cl)c(Cl)c(Cl)c2)C(F)(F)F)cc1)c1ccnc(Cl)c1 (stereo not shown) [CC13] | 50 to 100 | 50 to 100
27 | O=C(NCc1ccc(/C=C/C(c2cc(Cl)c(Cl)c(Cl)c2)C(F)(F)F)cc1Cl)C(=O)NCC(F)(F)F (stereo not shown) [CC42, (E)-N^1-(2-chloro-4-(4,4,4-trifluoro-3-(3,4,5-trichlorophenyl)but-1-en-1-yl)benzyl)-N^2-(2,2,2-trifluoroethyl)oxalamide] | 0 | 0
28 | Fc1cc(/C=C/C(c2cc(Cl)cc(Cl)c2)C(F)(F)F)ccc1-n1cncn1 (stereo not shown) [DC48] | 50 to 100 | 50 to 100
29 | O=C(CNC(=O)c1ccc(/C=C\C(c2cc(Cl)c(Cl)c(Cl)c2)C(F)(F)F)cc1Br)NCC(F)(F)F (stereo not shown) [AC95, (Z)-2-bromo-N-(2-oxo-2-((2,2,2-trifluoroethyl)amino)ethyl)-4-(4,4,4-trifluoro-3-(3,4,5-trichlorophenyl)but-1-en-1-yl)benzamide] | 50 to 100 | 50 to 100
30 | O=C(CC(F)(F)F)NCc1ccc(/C=C/C(c2cc(Cl)cc(Cl)c2)C(F)(F)F)cc1 (stereo not shown) [CC3] | 50 to 100 | 50 to 100
31 | O=C(CC(F)(F)F)NCc1ccc(/C=C/C(c2cc(Cl)c(Cl)c(Cl)c2)C(F)(F)F)c2ccccc12 (stereo not shown) [CC46, (E)-3,3,3-trifluoro-N-((4-(4,4,4-trifluoro-3-(3,4,5-trichlorophenyl)but-1-en-1-yl)naphthalen-1-yl)methyl)propanamide] | 50 to 100 | 0
32 | CC(=O)c1ncnn1-c1ccc(/C=C/C(c2cc(Cl)cc(Cl)c2)C(F)(F)F)cc1 (stereo not shown) [DC24] | 0 | 0
33 | FC(F)(F)C(/C=C/c1ccc(-n2cncn2)c(-c2ccncc2)c1)c1cc(Cl)cc(Cl)c1 (stereo not shown) [DC64] | 0 | 0
34 | COc1c(Cl)cc(C(/C=C/c2ccc(-n3cncn3)c(C#N)c2)C(F)(F)F)cc1Cl (stereo not shown) [DC34] | 50 to 100 | 50 to 100
35 | O=C(NCc1ncc(/C=C/C(c2cc(Cl)c(Cl)c(Cl)c2)C(F)(F)F)cc1Cl)C1CC1 (stereo not shown) [CC45] | 50 to 100 | 50 to 100
36 | COc1cc(/C=C/C(c2cc(Cl)c(F)c(Cl)c2)C(F)(F)F)ccc1C(=O)NC1CS(=O)(=O)C1 (stereo not shown) [AC85] | 50 to 100 | 50 to 100
37 | OC(/C=C/c1ccc(-n2cncn2)cc1)(c1cc(Cl)cc(Cl)c1)C(F)(F)F (stereo not shown) [DC69, (E)-4-(4-(1H-1,2,4-triazol-1-yl)phenyl)-2-(3,5-dichlorophenyl)-1,1,1-trifluorobut-3-en-2-ol] | 0 | 0
38 | CCNC(=O)NCc1ccc(/C=C/C(c2cc(Cl)c(Cl)c(Cl)c2)C(F)(F)F)c2ccccc12 (stereo not shown) [CC49, (E)-1-ethyl-3-((4-(4,4,4-trifluoro-3-(3,4,5-trichlorophenyl)but-1-en-1-yl)naphthalen-1-yl)methyl)urea] | 0 | 0
